Assay results as given in publication PMC9144445, “Substrate-Based Design of Cytosolic Nucleotidase IIIB Inhibitors and Structural Insights into Inhibition Mechanism” (Pharmaceuticals, 2022).

Legend:
human cN-IIIA = human cN-IIIA (Homo sapiens, UniProt Q9H0P0); assay: IC50 determination for cN-IIIA (MGP assay); format: biochemical; details: for IC50: m7GMP 100 µM, cN-IIIA 40 nM, 25 min, MGP assay
Method: To determine the inhibitory potency towards cN-IIIA, compounds were evaluated using the MGP assay in an analogous way as described above for cN-IIIB.
All experiments were performed in triplicate.

mouse eIF4E = mouse eIF4E (Mus musculus, UniProt P63073); assay: eIF4E competition binding assay with pyrene-labelled fluorescent probe; details: for EC50: mouse eIF4E 400 nM, pyrene-labelled probe 75 nM
[1] = tested on: endogenous cN-IIIB, m^7GMP dephosphorylation in cytoplasmic HEK 293T cell extracts; assay: m7GMP decay in HEK 293T cell extract in presence of inhibitors (LC–MS/MS); format: biochemical, human; details: compound 100 µM, [2H]-m7GMP 4 µM, 37 °C, up to 60 min
Method: The expression of cN-IIIB was verified by Western blot and was the most abundant in HEK 293T among four tested cell lines (Figure 9A). The cN-IIIA isoform was likewise abundantly expressed in the HEK cell line. The stability and activity of the inhibitors were tested in HEK 293T cell extracts using mass spectrometry analysis. The evaluated set of compounds contained some of the identified cN-IIIB inhibitors: 4, 5, 5a, and 5d of varying inhibitory potencies as well as compound S16 with no inhibitory potency (negative control). Initially, we verified the stability of the compounds in the extracts. The LC–MS/MS analyses confirmed that all analyzed compounds were stable in the lysate for at least 60 min (Figure 9B). Then, we monitored the time-dependent degradation of heavy m^7GMP, deuterated within the methyl group ([^2H]-m^7GMP]) in the extracts, in the presence or absence of the evaluated compounds (100 µM each, Figure 9C).
A typical reaction contained 1 µL–40 µM (final concentrations 4 µM) of [^2H]m^7GMP and 9 µL cell extracts. […]
Chromatographic separation of nucleotides and their metabolites was achieved on a ZORBAX Eclipse Plus C18 analytical column (3.5 μm, 4.6 mm × 100 mm, Agilent) equipped with Eclipse Plus-C18 analytical guard column (5.0 μm, 4.6 × 12.5 mm). […] Then, the analytes in the HPLC eluate were monitored by MS in multiple reaction monitoring (MRM) mode. […]

mouse eIF4E, sequence (P63073 whole entry): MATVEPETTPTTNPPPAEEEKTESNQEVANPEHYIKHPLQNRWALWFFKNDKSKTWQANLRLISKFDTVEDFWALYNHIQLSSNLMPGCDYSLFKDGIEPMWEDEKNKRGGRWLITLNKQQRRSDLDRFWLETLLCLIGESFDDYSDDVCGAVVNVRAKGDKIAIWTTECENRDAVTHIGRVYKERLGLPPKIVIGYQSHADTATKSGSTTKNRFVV

Structure (SMILES)	IC50 (human cN-IIIA) [µM]	EC50 (mouse eIF4E) [µM]	SI (cN-IIIB/cN-IIIA) (human cN-IIIA; ratio of IC50 for cN-IIIB and IC50 for cN-IIIA)	Affinity to eIF4E compared to m7GMP (mouse eIF4E; comparison of EC50 values)	SI (cN-IIIB/eIF4E) (mouse eIF4E; ratio of IC50 for cN-IIIB and EC50 for eIF4E)	Inhibition of m7GMP decay in HEK 293T cell extract (in words) [1]
Nc1nc2c(c(=O)[nH]1)[n+](Cc1ccc(F)c(F)c1)cn2C1OC(COP(=O)([O-])O)C(O)C1O (centres unmarked) [Compound 5d]	106 ± 26.6	39.9 ± 8.5	–	–	–	–
C[n+]1cn([C@@H]2O[C@H](Cn3cc(CCP(=O)([O-])O)nn3)[C@@H](O)[C@H]2O)c2nc(N)[nH]c(=O)c21 [Compound S16]	–	–	–	–	–	almost complete decay of m^7GMP was observed within the first 50 min
Nc1nc2c(c(=O)[nH]1)[n+](Cc1ccc(C(F)(F)F)cc1)cn2[C@@H]1O[C@H](COP(=O)([O-])O)[C@@H](O)[C@H]1O [Compound 5g, 7-(4-Trifluoromethylbenzyl)guanosine 5’-Monophosphate]	42.5 ± 8.3	118 ± 66.4	0.17	at least two-fold lower affinity	0.06	–

More lines, main results first:

IC50 (human cN-IIIA) [µM]	EC50 (mouse eIF4E) [µM]	SI (cN-IIIB/cN-IIIA) (human cN-IIIA; ratio of IC50 for cN-IIIB and IC50 for cN-IIIA)	Affinity to eIF4E compared to m7GMP (mouse eIF4E; comparison of EC50 values)	SI (cN-IIIB/eIF4E) (mouse eIF4E; ratio of IC50 for cN-IIIB and EC50 for eIF4E)	Structure (SMILES)	Inhibition of m7GMP decay in HEK 293T cell extract (in words) [1]
127 ± 35.6	22.6 ± 4.3	–	–	–	Cc1cccc(C[n+]2cn([C@@H]3O[C@H](COP(=O)([O-])O)[C@@H](O)[C@H]3O)c3nc(N)[nH]c(=O)c32)c1 [Compound 5a]	–
113 ± 38.5	–	–	–	–	Nc1nc2c(c(=O)[nH]1)[n+](Cc1ccccc1)cn2[C@@H]1O[C@H](COP(=O)([O-])O)[C@@H](O)[C@H]1O [Compound 5]	–
